{"source": "paper PMC5810286", "about": "“Niemann-Pick C2 Proteins: A New Function for an Old Family” (Frontiers in Physiology, 2018)", "note": "“Also recorded” adds a separate entry of the source."}
{"biological_target": "T1, HarmNPC2-1 (Helicoverpa armigera, UniProt A0A2W1BYA3)", "T1 sequence (A0A2W1BYA3 entry or part of it)": "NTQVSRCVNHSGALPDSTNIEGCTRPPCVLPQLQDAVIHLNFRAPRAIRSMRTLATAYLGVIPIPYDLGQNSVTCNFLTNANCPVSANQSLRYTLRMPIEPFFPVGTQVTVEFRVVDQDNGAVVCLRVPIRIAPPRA", "experiment": "Competitive binding experiments (displacement of 1-NPN)", "details": "competitive binding with 1-NPN, ligand 0.5–16 μM", "description": "(§1) Emission fluorescence spectra were recorded on a Horiba scientific Fluoromax-4 spectrofluorometer at room temperature in a right-angle configuration, with a 1 cm light path quartz cuvette and 5 nm slits for both excitation and emission. Proteins were dissolved in 50 mM Tris–HCl buffer, pH 7.4, while ligands were added as 1 mM methanol solutions.\n(§2) The probe was excited at 337 nm and emission spectra were recorded between 380 and 450 nm. […] Data obtained with 1-NPN were analyzed with Prism software."}
{"smiles": "COc1cc(CNC(=O)CCCC/C=C/C(C)C)ccc1O", "note": "[capsaicin]", "binding / affinity for HarmNPC2-1 (in words)": "failed to bind"}
{"smiles": "O=C/C=C/c1ccccc1", "note": "[cinnamaldehyde]", "binding / affinity for HarmNPC2-1 (in words)": "failed to bind"}
{"smiles": "COc1cc(/C=C/C=O)ccc1O", "note": "[coniferyl aldehyde]", "binding / affinity for HarmNPC2-1 (in words)": "moderate binding"}
{"smiles": "C=CCc1ccc(O)c(OC)c1", "note": "[eugenol]", "binding / affinity for HarmNPC2-1 (in words)": "failed to bind"}
{"smiles": "Cc1cc2c(C(C)C)c(O)c(O)c(C=O)c2c(O)c1-c1c(C)cc2c(C(C)C)c(O)c(O)c(C=O)c2c1O", "note": "[gossypol]", "binding / affinity for HarmNPC2-1 (in words)": "best ligand; also recorded: the best"}
{"smiles": "COc1ccc([C@@H]2CC(=O)c3c(O)cc(O[C@@H]4O[C@H](CO[C@@H]5O[C@@H](C)[C@H](O)[C@@H](O)[C@H]5O)[C@@H](O)[C@H](O)[C@H]4O)cc3O2)cc1O", "note": "[hesperidin]", "binding / affinity for HarmNPC2-1 (in words)": "the worst"}
{"smiles": "OCc1ccc2c(c1)OCO2", "note": "[piperonyl alcohol]", "binding / affinity for HarmNPC2-1 (in words)": "failed to bind"}
{"smiles": "COc1cc(C=O)ccc1O", "note": "[vanillin]", "binding / affinity for HarmNPC2-1 (in words)": "failed to bind"}
{"biological_target": "T1, HarmNPC2-1", "experiment": "Competitive binding experiments (displacement of 1-NPN)", "details": "concentrations up to 16 μM; protein and 1-NPN both 2 μM", "description": "as §1, §2"}
{"smiles": "CC(C)=CCC[C@@H](C)CC=O", "note": "(racemic) [citronellal]", "displacing the fluorescent probe from the complex": "ineffective"}
{"smiles": "CCCCCCCO", "note": "[1-heptanol]", "displacing the fluorescent probe from the complex": "ineffective"}
{"smiles": "C=CC(O)CCCCC", "note": "(centres unmarked) [1-octen-3-ol]", "displacing the fluorescent probe from the complex": "ineffective"}
{"smiles": "CCCC=CC=CC=O", "note": "[2,4-octadienal]", "displacing the fluorescent probe from the complex": "ineffective"}
{"smiles": "CCCCC(C)O", "note": "(centres unmarked) [2-hexanol]", "displacing the fluorescent probe from the complex": "ineffective"}
{"smiles": "O=Cc1ccccc1O", "note": "[2-hydroxy benzaldehyde]", "displacing the fluorescent probe from the complex": "ineffective"}
{"smiles": "O=CCc1ccccc1", "note": "[2-phenylacetaldehyde]", "displacing the fluorescent probe from the complex": "ineffective"}
{"smiles": "CCCC(O)CC", "note": "(centres unmarked) [3-hexanol]", "displacing the fluorescent probe from the complex": "ineffective"}
{"smiles": "COc1ccc(C=O)cc1", "note": "[4-methoxy benzaldehyde]", "displacing the fluorescent probe from the complex": "ineffective"}
{"smiles": "Cc1ccc(C=O)cc1", "note": "[4-methyl benzaldehyde]", "displacing the fluorescent probe from the complex": "ineffective"}
{"smiles": "CCCCCC/C=C\\CCCCCCCC=O", "note": "[(Z)-9-hexadecenal]", "displacing the fluorescent probe from the complex": "ineffective"}
{"smiles": "CCCC/C=C\\CCCCCCCCCC=O", "note": "[(Z)-11-hexadecenal]", "displacing the fluorescent probe from the complex": "ineffective"}
{"smiles": "CCCC/C=C\\CCCCCCCCCCO", "note": "[(Z)-11-hexadecenol]", "displacing the fluorescent probe from the complex": "ineffective"}
{"smiles": "CCCC/C=C\\CCCCCCCCCCOC(C)=O", "note": "[(Z)-11-hexadecenyl acetate]", "displacing the fluorescent probe from the complex": "ineffective"}
{"smiles": "CC/C=C\\CCO", "note": "[Z3-hexen-1-ol]", "displacing the fluorescent probe from the complex": "ineffective"}
{"smiles": "O=Cc1ccccc1", "note": "[benzaldehyde]", "displacing the fluorescent probe from the complex": "ineffective"}
{"smiles": "COc1cc(CNC(=O)CCCC/C=C/C(C)C)ccc1O", "note": "[capsaicin]", "displacing the fluorescent probe from the complex": "ineffective"}
{"smiles": "C=C(C)C1CC=C(C)C(=O)C1", "note": "(centres unmarked) [carvone]", "displacing the fluorescent probe from the complex": "ineffective"}
{"smiles": "O=C/C=C/c1ccccc1", "note": "[cinnamaldehyde]", "displacing the fluorescent probe from the complex": "ineffective"}
{"smiles": "COC(=O)CC(C)CCC=C(C)C", "note": "(centres unmarked) [citronellic acid methyl ester]", "displacing the fluorescent probe from the complex": "ineffective"}
{"smiles": "CCCCCCCCCC=O", "note": "[decanal]", "displacing the fluorescent probe from the complex": "ineffective"}
{"smiles": "CCCCCCCCCC(=O)O", "note": "[decanoic acid]", "displacing the fluorescent probe from the complex": "ineffective"}
{"smiles": "C=CCc1ccc(O)c(OC)c1", "note": "[eugenol]", "displacing the fluorescent probe from the complex": "ineffective"}
{"smiles": "CC(C)=CCC/C(C)=C/CC/C(C)=C/CO", "note": "[farnesol]", "displacing the fluorescent probe from the complex": "ineffective"}
{"smiles": "c1ccc2[nH]ccc2c1", "note": "[indole]", "displacing the fluorescent probe from the complex": "ineffective"}
{"smiles": "COC(=O)C=Cc1ccccc1", "note": "[methyl cinnamate]", "displacing the fluorescent probe from the complex": "ineffective"}
{"smiles": "CC/C=C\\CC1C(=O)CCC1CC(=O)OC", "note": "(centres unmarked) [methyl jasmonate]", "displacing the fluorescent probe from the complex": "ineffective"}
{"smiles": "CCCCCCCC=O", "note": "[octanal]", "displacing the fluorescent probe from the complex": "ineffective"}
{"smiles": "CCCCCCCC(=O)O", "note": "[octanoic acid]", "displacing the fluorescent probe from the complex": "ineffective"}
{"smiles": "OCc1ccc2c(c1)OCO2", "note": "[piperonyl alcohol]", "displacing the fluorescent probe from the complex": "ineffective"}
{"smiles": "CC1=C(C=O)C(C)(C)CC=C1", "note": "[safranal]", "displacing the fluorescent probe from the complex": "ineffective"}
{"smiles": "COc1cc(C=O)ccc1O", "note": "[vanillin]", "displacing the fluorescent probe from the complex": "ineffective"}
{"smiles": "C[C@]12CC[C@@H]3c4ccc(O)cc4CC[C@H]3[C@@H]1CC[C@@H]2O", "note": "[β-estradiol]", "displacing the fluorescent probe from the complex": "ineffective"}
{"smiles": "CC(=O)/C=C/C1=C(C)CCCC1(C)C", "note": "[β-ionone]", "displacing the fluorescent probe from the complex": "ineffective"}
{"biological_target": "T1, HarmNPC2-1", "experiment": "Quenching of intrinsic tryptophan fluorescence", "assay_type": "binding", "details": "Figure 2C", "description": "as §1"}
{"smiles": "Cc1cc2c(C(C)C)c(O)c(O)c(C=O)c2c(O)c1-c1c(C)cc2c(C(C)C)c(O)c(O)c(C=O)c2c1O", "note": "[gossypol]", "quenching of intrinsic tryptophan fluorescence": "quenching of intrinsic tryptophan fluorescence in a dose-dependent fashion"}
{"smiles": "O=c1c(O)c(-c2ccc(O)c(O)c2)oc2cc(O)cc(O)c12", "note": "[quercetin]", "quenching of intrinsic tryptophan fluorescence": "quenching of intrinsic tryptophan fluorescence in a dose-dependent fashion"}
